Values joined by “and” are separate entries in the source; they are usually repeats but may differ in a detail not shown here. Equal entries are not always repeated. Where two headings read alike, the source gives them in different places.
What was measured:
HCT 116 = assay: cell viability in human CRC cell line HCT 116; assay type: cell-based; details: Homo sapiens, HCT-116, 96 h
Experimental: (§1) To generate KAP^2D cells, KAP organoids were isolated from Matrigel, fragmented by mechanical dissociation and plated without any extracellular matrix on common cell culture dishes. Phoenix-Eco packaging cells (CRL-3214), HCT-15 (CCL-225), HCT 116 (CCL-247), COLO 205 (CCL-222), LS 174T (CL-188), RKO (CRL-2577) and HT-29 (HTB-38) were obtained from the American Type Culture Collection. The cells were cultured at 37 °C and 7% CO2 with RPMI (KAP^2D cells) or DMEM (other cell lines), supplemented with 10% FBS and penicillin–streptomycin. KAP^2D cells were authenticated using PCR (Kras locus and Trp53 locus). Phoenix-Eco packaging cells and HCT-15, HCT 116, COLO 205, LS 174T, RKO and HT-29 cells were authenticated by the provider using short tandem repeat profiling. No commonly misidentified cell lines were used. Mycoplasma contamination was excluded by a PCR-based analysis.
(§2) For in vitro treatment studies, organoids were mechanically dissociated and digested using TrypLE supplemented with 100 µg ml^−1 DNaseI and 10.5 µM Y-27632 dihydrochloride (Invitrogen) at 37 °C. A total of 1,000–2,000 single cells were plated per well in white 96-well plates (Greiner) in culture medium containing 10% GFR Matrigel or Cultrex BME. The treatment with doxycycline (5 µg ml^−1), pharmacological inhibitors or corresponding volumes of DMSO was started 24 h after plating. Doxycycline was obtained from Sigma-Aldrich. […] Cell viability was measured by means of CellTiter-Glo 3D or CellTiter-Glo 2.0 reagent (Promega) according to the manufacturers’ instructions and the Infinite M Plex reader (Tecan, i-control version 3.9.1 software). Results were normalized to vehicle (DMSO) or to shNC. For cell-doubling assays, the cell number was quantified at the corresponding time points using Guava EasyCyte flow cytometer (Luminex, CytoSoft v5.2 software).

HT-29 = assay: cell viability in human CRC cell line HT-29; assay type: cell-based; details: ED Fig. 9h, replicates; for viability at 0.0137 µM / viability at 0.0412 µM / viability at 0.1235 µM / viability at 0.3704 µM / viability at 1.1111 µM / viability at 3.3333 µM / viability at 10 µM: Homo sapiens; for viability at 0.0137 µM: HT-29, read-out: HT-29 Cell viability (%), 0.0137 µM; for viability at 0.0412 µM: HT-29, read-out: HT-29 Cell viability (%), 0.0412 µM; for viability at 0.1235 µM: HT-29, read-out: HT-29 Cell viability (%), 0.1235 µM; for viability at 0.3704 µM: HT-29, read-out: HT-29 Cell viability (%), 0.3704 µM; for viability at 1.1111 µM: HT-29, read-out: HT-29 Cell viability (%), 1.1111 µM; for viability at 3.3333 µM: HT-29, read-out: HT-29 Cell viability (%), 3.3333 µM; for viability at 10 µM: HT-29, read-out: HT-29 Cell viability (%), 10.0000 µM
Experimental: as §1, §2

KAP^2D cells = assay: quantification of viable KAP^2D cells over time (cell-doubling assay); assay type: cell-based, mouse; details: Fig. 4i
Experimental: The treatment with doxycycline (5 µg ml^−1), pharmacological inhibitors or corresponding volumes of DMSO was started 24 h after plating. […] Cell viability was measured by means of CellTiter-Glo 3D or CellTiter-Glo 2.0 reagent (Promega) according to the manufacturers’ instructions and the Infinite M Plex reader (Tecan, i-control version 3.9.1 software). Results were normalized to vehicle (DMSO) or to shNC. For cell-doubling assays, the cell number was quantified at the corresponding time points using Guava EasyCyte flow cytometer (Luminex, CytoSoft v5.2 software).

PDO14 = assay: cell viability in patient-derived CRC organoids PDO14; assay type: cell-based, human
Experimental: as §2

PDO12 = assay: cell viability in patient-derived CRC organoids PDO12; assay type: cell-based, human
Experimental: as §2

Question: Which viability at 0.0412 µM (HCT 116; read-out: HCT 116 Cell viability (%), 0.0412 µM, 4 d) does the source give for `O=C1c2ccc(Nc3ccc(F)cc3F)cc2CCc2ccc(OC[C@H](O)CO)cc21` [SKL, skepinone-L, reference compound] here?
Answer: The viability at 0.0412 µM was 90.7%.

Question: What about the viability at 0.1235 µM (HCT 116; read-out: HCT 116 Cell viability (%), 0.1235 µM, 4 d) of the same molecule?
Answer: Its viability at 0.1235 µM is 93.8%.

Question: And the viability at 0.3704 µM (HCT 116; read-out: HCT 116 Cell viability (%), 0.3704 µM, 4 d)?
Answer: Its viability at 0.3704 µM is 94.8%.

Question: And the viability at 3.3333 µM (HCT 116; read-out: HCT 116 Cell viability (%), 3.3333 µM, 4 d)?
Answer: Its viability at 3.3333 µM is 96.3%.

Question: What about the “HT-29 Cell viability (%)” value (HT-29; 0.0137 µM, Repetition) of the same molecule?
Answer: The value was 103.68% and 103.86%.

Question: What about the “HT-29 Cell viability (%)” value (HT-29; 0.0137 µM, first experiment) of the same molecule?
Answer: The value was 94.50% and 93.43%.

Question: And the “HT-29 Cell viability (%)” value (HT-29; 0.0412 µM, Repetition)?
Answer: The value was 99.67% and 99.85%.

Question: What about the “HT-29 Cell viability (%)” value (HT-29; 0.0412 µM, first experiment) of the same molecule?
Answer: Its value is 92.23% and 89.57%.

Question: What about the “HT-29 Cell viability (%)” value (HT-29; 0.1235 µM, Repetition) of the same molecule?
Answer: The value was 103.93% and 105.17%.

Question: What about the “HT-29 Cell viability (%)” value (HT-29; 0.1235 µM, first experiment) of the same molecule?
Answer: The value was 89.62% and 88.59%.

Question: And the “HT-29 Cell viability (%)” value (HT-29; 0.3704 µM, Repetition)?
Answer: The value was 102.88% and 105.26%.

Question: And the “HT-29 Cell viability (%)” value (HT-29; 0.3704 µM, first experiment)?
Answer: Its value is 92.54% and 90.50%.

Question: And the “HT-29 Cell viability (%)” value (HT-29; 1.1111 µM, Repetition)?
Answer: The value was 104.46% and 106.93%.

Question: What about the “HT-29 Cell viability (%)” value (HT-29; 1.1111 µM, first experiment) of the same molecule?
Answer: The value was 97.34% and 97.79%.

Question: What about the “HT-29 Cell viability (%)” value (HT-29; 3.3333 µM, Repetition) of the same molecule?
Answer: The value was 100.17% and 95.98%.

Question: And the “HT-29 Cell viability (%)” value (HT-29; 3.3333 µM, first experiment)?
Answer: Its value is 98.14% and 94.12%.

Question: And the “HT-29 Cell viability (%)” value (HT-29; 10.0000 µM, Repetition)?
Answer: Its value is 26.97% and 25.38%.

Question: What about the “HT-29 Cell viability (%)” value (HT-29; 10.0000 µM, first experiment) of the same molecule?
Answer: Its value is 26.95% and 26.30%.

Question: What about the viability at 0.0137 µM (HT-29; Repetition) of the same molecule?
Answer: Its viability at 0.0137 µM is 95.8%.

Question: What about the viability at 0.0137 µM (HT-29; first experiment) of the same molecule?
Answer: Its viability at 0.0137 µM is 95.5%.

Question: What about the viability at 0.0412 µM (HT-29; Repetition) of the same molecule?
Answer: The viability at 0.0412 µM was 92.3%.

Question: And the viability at 0.0412 µM (HT-29; first experiment)?
Answer: Its viability at 0.0412 µM is 93.7%.

Question: What about the viability at 0.1235 µM (HT-29; Repetition) of the same molecule?
Answer: The viability at 0.1235 µM was 91.3%.

Question: What about the viability at 0.1235 µM (HT-29; first experiment) of the same molecule?
Answer: The viability at 0.1235 µM was 91.8%.

Question: And the viability at 0.3704 µM (HT-29; Repetition)?
Answer: Its viability at 0.3704 µM is 97.9%.

Question: What about the viability at 0.3704 µM (HT-29; first experiment) of the same molecule?
Answer: The viability at 0.3704 µM was 92.5%.

Question: What about the viability at 1.1111 µM (HT-29; Repetition) of the same molecule?
Answer: The viability at 1.1111 µM was 99.2%.

Question: What about the viability at 1.1111 µM (HT-29; first experiment) of the same molecule?
Answer: The viability at 1.1111 µM was 99.6%.

Question: And the viability at 3.3333 µM (HT-29; Repetition)?
Answer: The viability at 3.3333 µM was 93.3%.

Question: And the viability at 3.3333 µM (HT-29; first experiment)?
Answer: The viability at 3.3333 µM was 95.6%.

Question: What about the viability at 10 µM (HT-29; Repetition) of the same molecule?
Answer: Its viability at 10 µM is 28.2%.

Question: And the viability at 10 µM (HT-29; first experiment)?
Answer: Its viability at 10 µM is 25.2%.

Question: What about the Number of cells (KAP^2D cells; 0 h of treatment) of the same molecule?
Answer: Its Number of cells is 41307.05 and 44263.95 and 43595.63 and 48502.24 and 40389.64.

Question: What about the Number of cells (KAP^2D cells; 12 h of treatment) of the same molecule?
Answer: Its Number of cells is 65088.74 and 77948.45 and 80933.57 and 91775.55 and 95176.94 and 93698.43.

Question: What about the Number of cells (KAP^2D cells; 24 h of treatment) of the same molecule?
Answer: The Number of cells was 83699.30 and 94240.25 and 95144.88 and 126855.10 and 130387.80 and 122006.30.

Question: What about the Number of cells (KAP^2D cells; 36 h of treatment) of the same molecule?
Answer: The Number of cells was 151900.95 and 118999.57 and 148091.83 and 233974.50 and 200549.50 and 179469.60.

Question: And the Number of cells (KAP^2D cells; 48 h of treatment)?
Answer: The Number of cells was 325693.88 and 295126.41 and 320338.47 and 303856.40 and 287208.10 and 301764.60.

Question: And the Number of cells (KAP^2D cells; 60 h of treatment)?
Answer: Its Number of cells is 579787.04 and 516216.51 and 567999.66 and 537469.80 and 457898.40 and 474698.40.

Question: What about the viability at 0.5 µM (PDO14; Homo sapiens, 96 h, read-out: Cell viability (%), PDO14, 0.5 µM, 4 d) of the same molecule?
Answer: Its viability at 0.5 µM is 104%.

Question: What about the viability at 1 µM (PDO14; Homo sapiens, 96 h, read-out: Cell viability (%), PDO14, 1 µM, 4 days) of the same molecule?
Answer: The viability at 1 µM was 100%.

Question: What about the “Cell viability (%)” value (PDO14; PDO14, 0.5 µM, 4 d, 0.5 µM) of the same molecule?
Answer: Its value is 101.08% and 101.64%.

Question: And the “Cell viability (%)” value (PDO14; PDO14, 1 µM, 4 days, 1 µM)?
Answer: Its value is 109.63% and 109.64%.

Question: What about the viability at 0.5 µM (PDO12; Homo sapiens, 96 h, read-out: Cell viability (%), PDO12, 0.5 µM, 4 d) of the same molecule?
Answer: The viability at 0.5 µM was 102%.

Question: What about the “Cell viability (%)” value (PDO12; PDO12, 0.5 µM, 4 d, 0.5 µM) of the same molecule?
Answer: The value was 113.70% and 97.26%.

Question: And the “Cell viability (%)” value (PDO12; PDO12, 1 µM, 4 days, 1 µM)?
Answer: Its value is 108.38% and 136.33% and 112.98%.

Reference: publication PMC11864979, “First-in-class ultralong-target-residence-time p38α inhibitors as a mitosis-targeted therapy for colorectal cancer” (Nature Cancer, 2025)
